A short description of the data set: gradient 5% acetonitrile 3 min, to 50% in 2 min, to 85% in 15 min, held 3 min, 100 µL/min. Conditions: column: Zorbax Extend-C18 2.1 x 50 mm; eluents: water / acetonitrile, 0.1% formic acid. In outline:
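Values are retention times taken from adduct peaks that software picked and an analyst inspected. The pure standards were run as mixtures of ~100 molecules on HPLC linked to a quadrupole time-of-flight mass spectrometer, in positive and negative ionization mode. A Zorbax Extend-C18 column (2.1 × 50 mm, 1.8 μm) was used at 100 μL/min with water and acetonitrile, each including 0.1% formic acid.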
`COC(=O)c1c(C)[nH]c(C(=O)N2CCC(CC(=O)NCC3CCCO3)CC2)c1C` (stereo not drawn) displayed an RP-LC retention time of 632 s.

With `CC1=C(c2ccc(C)cc2)S(=O)(=O)N=C1N1CCCN(C(=O)CCC(C)C)CC1`, the RP-LC retention time is 888 s.

The molecule `Cc1cc(NC(=O)C(=O)NCCN2CCN(c3ccccc3F)CC2)no1` displayed an RP-LC retention time of 580 s.

In turn, `COc1cccc(CNC(=O)c2ccc3c(c2)nc2n3CCN(Cc3ccccc3)C2=O)c1` had an RP-LC retention time of 777 s.

Turning to `CCOc1ccccc1NC(=O)Cn1cnc2nc(N3CCCC(C(=O)NC(C)C)C3)sc2c1=O` (stereo not drawn), the RP-LC retention time came to 743 s.

Take `COc1ccc(CCN2CCC(CNS(=O)(=O)c3cc(-c4cc(C)no4)cs3)CC2)cc1`: the RP-LC retention time turned out to be 718 s.

Molecule `NC(=O)[C@@H]1C[C@@H](O)CN1C1CCN(C(=O)CC2=CCCCC2)CC1` registered an RP-LC retention time of 575 s.

As for `CN1c2cc(F)ccc2C(=O)NC12CCN(C(=O)c1ccc(F)c(F)c1)CC2`, the RP-LC retention time came to 776 s.

`CC(C)CC(=O)NCCC1CCN(C(=O)Nc2cc(F)ccc2F)CC1` returned an RP-LC retention time of 1190 s.

In turn, `CC(C)c1ccc(NC(=O)CN2C(=O)C(C(=O)N3CCCC3)Sc3ccccc32)cc1` (stereo not drawn) displayed an RP-LC retention time of 1140 s.

Regarding `Cc1nn(-c2cc(N3CCCCC3)ncn2)c(C)c1CCC(=O)NCc1ccccn1`, the RP-LC retention time is 646 s.

Take `COc1ccc(C2(C(=O)N3CCC(c4nc(CCOCC5CCCC5)no4)C3)CC2)cc1` (stereo not drawn): the RP-LC retention time is 1060 s.

Molecule `O=S(=O)(c1ccc(-c2nnc(C3CCCC3)o2)o1)N1CCN(c2ccccn2)CC1` registered an RP-LC retention time of 726 s.

With `COc1ccc(-c2nnc(-c3ccc(C)c(S(=O)(=O)NCc4cccnc4)c3)o2)cc1OC`, the RP-LC retention time worked out at 660 s.

On to `O=C(Cn1cnc2ccccc21)N1CCC(COCc2ccccc2)CC1`, for which the RP-LC retention time turned out to be 608 s.

Turning to `O=C(NCc1ccc(Cl)cc1)C1CCc2nc(N3CCOCC3)ncc2C1` (stereo not drawn), the RP-LC retention time came out at 704 s.

On to `O=C(NCCSc1ncc(-c2ccc(F)cc2)[nH]1)c1ccc(Br)o1`, for which the RP-LC retention time came out at 596 s.

Take `Cc1noc(C)c1S(=O)(=O)N1CCC(c2noc(-c3cccnc3)n2)C1` (stereo not drawn): the RP-LC retention time was 796 s.

Turning to `O=S(=O)(Nc1cc(-c2ccoc2)no1)c1ccc(F)cc1F`, the RP-LC retention time is 806 s.

`COc1ccc2c(CCNC(=O)COc3ccc(Cl)cc3)c[nH]c2c1` registered an RP-LC retention time of 879 s.

In the case of `COc1cccc(C2c3c(oc4cc(C)c(C)cc4c3=O)C(=O)N2CCCN2CCOCC2)c1` (stereo not drawn), the RP-LC retention time was found to be 695 s.

`COCc1cc2nn(CC(=O)N3CCc4ccccc43)c(=O)n2c(-c2ccccc2)n1` displayed an RP-LC retention time of 856 s.

The molecule `CCc1nc2nc3c(cn2n1)C(=O)CC(C)(C)C3` yielded an RP-LC retention time of 693 s.

The molecule `CCn1cnnc1C1CCCCN1S(=O)(=O)c1ccc(C#N)cc1` (stereo not drawn) yielded an RP-LC retention time of 695 s.

For the molecule `CN1C(=O)c2cc(S(=O)(=O)NCc3ccccc3)ccc2Oc2cccnc21`, the RP-LC retention time came out at 959 s.

The molecule `O=C(CC1CCCCC1)N1CCC(F)(C(=O)N2CCCC2)CC1` displayed an RP-LC retention time of 806 s.

With `CC(C)CCNC(=O)c1csc(-c2ccc(N3CCCC3)nc2)n1`, the RP-LC retention time was 714 s.

Molecule `Cc1c(C(=O)NC2CCCC2)cnn1-c1cc(-c2nc(C(C)(C)C)no2)ccn1` returned an RP-LC retention time of 1130 s.

In turn, `O=C(NCc1ccc(F)cc1)C1CCN(c2nnc3c(Cl)cccn23)CC1` registered an RP-LC retention time of 645 s.

On to `Cc1ccc(-c2nnc(Cc3nc(-c4ccc(F)cc4)no3)o2)cc1F`, for which the RP-LC retention time turned out to be 1100 s.

As to `CC(C)c1ccc(NC(=O)C2(Cc3cccnc3)CCCCC(=O)N2)cc1` (stereo not drawn), the RP-LC retention time was 669 s.

In turn, `COc1ccc(CNC(=O)CSc2ccc(N3CCCC(C(=O)NC4CC4)C3)nn2)cc1` (stereo not drawn) yielded an RP-LC retention time of 631 s.

As for `O=c1n(Cc2ccccc2F)nc2c(S(=O)(=O)N3CCCCC3)cccn12`, the RP-LC retention time is 891 s.

For the origin of these results see the METLIN SMRT retention time set (Domingo-Almenara et al. 2019).
